Results on 47 compounds are retold here after US20230382904A1, “SUBSTITUTED 4-([1,2,4]TRIAZOLO[1,5-a]PYRIDIN-6-YL)THIOPHENE-2-CARBOXAMIDE DERIVATIVES AND USE THEREOF” (The Johns Hopkins University, priority 2020, published 2023).

Experiment [1] has as its target LZK (Homo sapiens (Human), UniProt O43283). Description: LZK biochemical assay (TR-FRET, MKK7 phosphorylation). Here is the method: LZK assay is a biochemical assay format designed to screen for inhibitors of LZK. Enzymatic activity of LZK was measured by monitoring phosphorylation of the physiological substrate MKK7 (MAP2K7, Dual specificity mitogen-activated protein kinase kinase 7). Phosphorylation was detected by a TR-FRET system whereby His-tagged MKK7 was labeled by a XL665-labeled anti-His antibody (FRET acceptor, emission 665 nm). LZK phosphorylates MKK7 at T275/S277 which were detected by an Eu-labeled anti-phospho-MKK7 (T275/S277) antibody (FRET donor, excitation 340 nm). Phosphorylation of MKK7 results in an increased TR-FRET signal (Ratio XL665-channel/Eu-channel) and inhibition of enzymatic activity of LZK decreases the TR-FRET signal.
Assay Protocol for 384 low volume MTP format: 1 μl of test compound was pipetted into test plate; +5 μl LZK solution (10 nM LZK, catalytic domain, Carna Biosiences in assay buffer); +5 μl substrate solution (15 nM MKK7, LDB; 15 μM ATP, in assay buffer); 90 min incubation at RT; +5 μl detection mix (20 nM XL665-labeled anti-His antibody, Cisbio; 0.4 nM Eu-labeled anti-phospho-MKK7 (T275/S277), Cisbio/Millipore in detection buffer), 16 h incubation at 32° C.; endpoint measurement BMG (HTRF).
(§1) All indicated concentrations final concentrations.
Assay buffer (384 format): 50 mM Hepes pH 7.5, 10 mM MgCl2, 1 mM EGTA, 1 mM DTT, 0.01% Triton X-100, 0.01% BSA, 1:500 Smart Block.
(§2) Detection buffer: 25 mM Tris/HCl pH 7.5, 100 mM EDTA, 100 mM NaCl, 200 mM KF, 0.01% Tween 20, 1:500 Smart Block.
For orientation: Time-resolved FRET reads energy transfer from a long-lived donor to a nearby acceptor.

Experiment [2] concerns the target DLK (Homo sapiens (Human), UniProt Q12852). Description: DLK biochemical assay (TR-FRET, MKK7 phosphorylation). Here is the method: DLK assay is a biochemical assay format designed to screen for inhibitors of DLK. Enzymatic activity of DLK was measured by monitoring phosphorylation of the physiological substrate MKK7 (MAP2K7, Dual specificity mitogen-activated protein kinase kinase 7). Phosphorylation was detected by a TR-FRET system whereby His-tagged MKK7 was labeled by a XL665-labeled anti-His antibody (FRET acceptor, emission 665 nm). DLK phosphorylates MKK7 at T275/S277, which was detected by an Eu-labeled anti-phospho-MKK7 (T275/S277) antibody (F RET donor, excitation 340 nm). Phosphorylation of MKK7 results in an increased TR-FRET signal (Ratio XL665-channel/Eu-channel) and inhibition of enzymatic activity of DLK decreases the TR-FRET signal.
Assay Protocol for 1536 MTP format: test compounds were predispensed (60 nl) in test plates; +3 μl DLK solution (10 nM DLK, catalytic domain, Carna Biosiences, 0.6 mM DTT in assay buffer); +2 μl substrate solution (15 nM MKK7, LDB; 60 μM ATP; 0.4 mM DTT in assay buffer); 90 min incubation at RT; +2 μl detection mix (5 nM XL665-labeled anti-His antibody, Cisbio; 0.1 nM Eu-labeled anti-phospho-MKK7 (T275/S277), Cisbio/Millipore in detection buffer); 16 h incubation at 37° C.; endpoint measurement BMG (HTRF).
Assay Protocol for 384 low volume MTP format: 1 μl of test compounds were pipetted into test plate; +5 μl DLK solution (10 nM DLK, catalytic domain, Carna Biosiences in assay buffer); +5 μl substrate solution (15 nM MKK7, LDB; 60 μM ATP, in assay buffer); 90 min incubation at RT; +9 μl detection mix (20 nM XL665-labeled anti-His antibody, Cisbio; 0.4 nM Eu-labeled anti-phospho-MKK7 (T275/S277), Cisbio/Millipore in detection buffer); 16 h incubation at 4° C.; endpoint measurement BMG (HTRF).
as §1
Assay buffer (384 format): 50 mM Hepes pH 7.5, 10 mM MgCl2, 1 mM EGTA, 1 mM DTT, 0,01% Triton X-100, 0.01% BSA, 1:500 Smart Block.
as §2

By IC50 is commonly meant the concentration at which inhibition is half-maximal.

Molecules are shown by their SMILES.

DLK, sequence (Q12852 1-520): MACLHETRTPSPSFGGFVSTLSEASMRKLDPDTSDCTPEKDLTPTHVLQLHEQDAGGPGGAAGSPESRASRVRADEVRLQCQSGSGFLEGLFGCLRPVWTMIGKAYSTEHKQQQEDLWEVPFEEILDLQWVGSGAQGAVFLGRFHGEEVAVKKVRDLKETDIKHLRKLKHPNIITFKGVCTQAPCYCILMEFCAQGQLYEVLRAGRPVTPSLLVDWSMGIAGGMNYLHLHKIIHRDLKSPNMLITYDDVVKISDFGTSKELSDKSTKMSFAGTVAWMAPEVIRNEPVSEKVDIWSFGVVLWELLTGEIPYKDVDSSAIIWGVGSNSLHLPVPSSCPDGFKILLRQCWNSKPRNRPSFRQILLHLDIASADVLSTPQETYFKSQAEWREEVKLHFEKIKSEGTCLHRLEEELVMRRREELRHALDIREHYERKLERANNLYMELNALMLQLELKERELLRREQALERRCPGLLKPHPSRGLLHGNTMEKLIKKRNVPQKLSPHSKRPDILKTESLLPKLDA
LZK, sequence (O43283 168-409): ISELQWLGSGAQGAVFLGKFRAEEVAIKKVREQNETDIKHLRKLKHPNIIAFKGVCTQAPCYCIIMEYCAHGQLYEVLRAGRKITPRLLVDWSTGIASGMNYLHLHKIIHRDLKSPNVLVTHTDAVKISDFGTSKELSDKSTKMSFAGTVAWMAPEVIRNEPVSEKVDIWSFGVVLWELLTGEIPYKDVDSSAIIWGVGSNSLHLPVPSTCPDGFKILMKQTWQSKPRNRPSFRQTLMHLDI

As to `Cc1sc(C(=O)NCc2nc3ccccc3o2)cc1-c1ccc2nc(N)nn2c1` [Compound 313], the IC50 was greater than 30000 nM in experiment [1] and 24000 nM in experiment [2].

`Nc1nc2ccc(-c3csc(C(=O)NCCc4c(F)cccc4Cl)c3)cn2n1` [Compound 283]: the figures for the IC50 in experiment [1] and in experiment [2] were greater than 30000 nM and 530 nM, respectively.

With `C[C@@H](CO)NC(=O)c1cc(-c2csc(C(=O)NCc3ccccc3)c2)cn2nc(N)nc12` [Compound 21], the 50% inhibitory concentration (IC50) came out at 40 nM in experiment [1] and 9.3 nM in experiment [2].

As to `Cn1ccnc1CNC(=O)c1cc(-c2ccc3nc(N)nn3c2)cs1` [Compound 241], the IC50 in experiment [1] was found to be 21000 nM; in experiment [2], 1300 nM.

`Cn1ccc(CNC(=O)c2cc(-c3ccc4nc(N)nn4c3)cs2)n1` [Compound 242]: the IC50 in experiment [1] turned out to be 19000 nM; in experiment [2], 1800 nM.

As to `COC(=O)c1cccc(CNC(=O)c2cc(-c3ccc4nc(N)nn4c3)cs2)c1` [Compound 280], the IC50 in experiment [1] came to 23000 nM; in experiment [2], 250 nM.

`Nc1nc2ccc(-c3csc(C(=O)NC4CCOC4)c3)cn2n1` (centres unmarked) [Compound 186] came in with an IC50 in experiment [2] of 7600 nM.

Consider `Nc1nc2ccc(-c3csc(C(=O)NCC4CCOCC4)c3)cn2n1` [Compound 188], for which the values for the IC50 in experiment [1] and in experiment [2] were greater than 30000 nM and 2000 nM, respectively.

As to `CC(C)NC(=O)c1cc(-c2csc(C(=O)N[C@@H](C)c3ccc(F)cc3)c2)cc2nc(N)nn12` [Compound 147], the IC50 in experiment [1] was 100 nM; in experiment [2], 21 nM.

`Nc1nc2ccc(-c3csc(C(=O)NCc4ccsc4)c3)cn2n1` [Compound 273]: the IC50 stood at 14000 nM in experiment [1] and 580 nM in experiment [2].

As for `COc1cccc(CNC(=O)c2cc(-c3cc(C(=O)N[C@@H](C)CO)c4nc(N)nn4c3)cs2)c1` [Compound 31], the IC50 was 170 nM in experiment [1] and 13 nM in experiment [2].

Take `CC(C)NC(=O)c1cc(-c2csc(C(=O)NC3CCCc4cc(F)ccc43)c2)cn2nc(N)nc12` (centres unmarked) [Compound 119]: the figures for the IC50 in experiment [1] and in experiment [2] were 505 nM and 24 nM, respectively.

Regarding `C[C@H](NC(=O)c1cc(-c2cc(C(=O)NC3CNC(=O)C3)c3nc(N)nn3c2)cs1)c1ccccc1` (mixture of isomers) [Compound 29], the IC50 came out at 60 nM in experiment [1] and 2.8 nM in experiment [2].

Turning to `CC[C@H](NC(=O)c1cc(-c2cc(C(=O)NC3COC3)c3nc(N)nn3c2)cs1)c1ccccc1` [Compound 75], the IC50 in experiment [1] turned out to be 4200 nM; in experiment [2], 67 nM.

As to `Nc1nc2c(C(F)(F)F)cc(-c3csc(C(=O)NC4CCCCC4)c3)cn2n1` [Compound 379], the IC50 in experiment [1] is 20000 nM; in experiment [2], 970 nM.

On to `CC[C@H](NC(=O)c1cc(-c2cc(C(=O)NC(C)(C)C)c3nc(N)nn3c2)cs1)c1ccc(F)cc1` [Compound 142], for which the IC50 in experiment [1] is 400 nM; in experiment [2], 120 nM.

As for `CN1CCC(CNC(=O)c2cc(-c3ccc4nc(N)nn4c3)cs2)CC1` [Compound 229], the IC50 in experiment [2] was found to be 7600 nM.

`Nc1nc2ccc(-c3csc(C(=O)NCC4CCCCO4)c3)cn2n1` (centres unmarked) [Compound 208] yielded an IC50 in experiment [2] of 3000 nM.

In experiment [2], `COc1cc(OC)nc(CNC(=O)c2cc(-c3ccc4nc(N)nn4c3)cs2)n1` [Compound 258] displayed an IC50 of 7000 nM.

On to `Nc1nc2ccc(-c3csc(C(=O)NCC4CCCO4)c3)cn2n1` (centres unmarked) [Compound 189], for which, in experiment [2], the midpoint of inhibition, the IC50, lay at 4700 nM.

The compound `Nc1nc2ccc(-c3csc(C(=O)Nc4ccccc4)c3)cn2n1` [Compound 259] returned an IC50 in experiment [2] of 2900 nM.

For the compound `Nc1nc2ccc(-c3csc(C(=O)NCC4CCOC4)c3)cn2n1` (centres unmarked) [Compound 210], in experiment [2], half-maximal inhibition (IC50) required 2700 nM.

Regarding `CCCNc1nc2ccc(-c3csc(C(=O)NCc4cccc(OC)c4)c3)cn2n1` [Compound 253], the IC50 in experiment [2] is greater than 30000 nM.

For the compound `CC(C)NC(=O)c1cc(-c2csc(C(=O)N[C@@H](C)c3ccc(F)cc3)c2)cn2ncnc12` [Compound 391], in experiment [2], the IC50 was 2000 nM.

On to `COC(C)CN(C)C(=O)c1cc(-c2ccc3nc(N)nn3c2)cs1` (centres unmarked) [Compound 164], for which, in experiment [2], the IC50 was determined as 28000 nM.

`COc1cccc(CNC(=O)c2cc(-c3ccc4nc(NCCN5CCOCC5)nn4c3)cs2)c1` [Compound 262] came in with an IC50 in experiment [2] greater than 30000 nM.

Regarding `CCn1cc(CNC(=O)c2cc(-c3ccc4nc(N)nn4c3)cs2)cn1` [Compound 218], the IC50 in experiment [2] came out at 8700 nM.

In the case of `C[C@H](NC(=O)c1cc(-c2cc(C(=O)NC3COC3)c3nc(N)nn3c2)cs1)c1ccc(F)cc1` [Compound 73], in experiment [2], it took 160 nM to reach half-maximal inhibition (IC50).

For `COc1cccc(CNC(=O)c2cc(-c3cc(C(=O)NC(C)C)c4nc(N)nn4c3)cs2)c1` [Compound 3], the IC50 in experiment [2] worked out at 34 nM.

Turning to `CC(C)(C)OC(=O)N1CCCC(NC(=O)c2cc(-c3ccc4nc(N)nn4c3)cs2)C1` (centres unmarked) [Compound 179], in experiment [2], the IC50 stood at 3400 nM.

As to `CN(Cc1ccc(F)cc1)C(=O)c1cc(-c2ccc3nc(N)nn3c2)cs1` [Compound 166], the IC50 in experiment [2] was 5200 nM.

Turning to `COc1ccc2c(c1)CN(C(=O)c1cc(-c3ccc4nc(N)nn4c3)cs1)C2` [Compound 237], the IC50 in experiment [2] was 12000 nM.

Consider `CC(C)c1nnc(-c2cc(-c3csc(C(=O)NCc4ccc(F)cc4)c3)cn3nc(N)nc23)s1` [Compound 393], for which, in experiment [2], the half-maximal inhibitory concentration (IC50) turned out to be 260 nM.

For the compound `COc1cccc(CNC(=O)c2cc(-c3cc(C(=O)NC(C)C)c4ncnn4c3)cs2)c1` [Compound 390], half-maximal inhibition in experiment [2] (IC50) was put at 11000 nM.

In experiment [2], `CC(C)NC(=O)c1cc(-c2csc(C(=O)N[C@@H](C)c3ccc(F)cc3)c2)cn2nc(N)nc12` [Compound 19, 2-Amino-6-(5-{[(1S)-1-(4-fluorophenyl)ethyl]carbamoyl}thiophen-3-yl)-N-(propan-2-yl)[1,2,4]triazolo[1,5-a]pyridine-8-carboxamide] came in with an IC50 of 8.65 nM.

In experiment [2], `CC(C)NC(=O)c1cc(-c2csc(C(=O)NCc3ccc(F)cc3)c2)cn2nc(N)nc12` [Compound 4, 2-Amino-6-(5-{[(4-fluorophenyl)methyl]carbamoyl}thiophen-3-yl)-N-(propan-2-yl)[1,2,4]triazolo[1,5-a]pyridine-8-carboxamide] had an IC50 of 35 nM.

With `Cn1cncc1CNC(=O)c1cc(-c2ccc3nc(N)nn3c2)cs1` [Compound 252], the IC50 in experiment [2] came out at 3900 nM.

The compound `CC[C@H]1CC[C@H](NC(=O)c2cc(-c3ccc4nc(N)nn4c3)cs2)CC1` [Compound 178] had an IC50 in experiment [2] of 3500 nM.

`C[C@H](NC(=O)c1cc(-c2cc(C(=O)NC(C)(C)CO)c3nc(N)nn3c2)cs1)c1ccc(F)cc1` [Compound 78] displayed an IC50 in experiment [2] of 6.45 nM.

In experiment [2], `CC(C)NC(=O)c1cc(-c2csc(C(=O)N[C@H](C)c3ccc(F)cc3)c2)cn2nc(N)nc12` [Compound 96] showed an IC50 of 14 nM.

In experiment [2], `NC(=O)c1cc(-c2ccc3nc(N)nn3c2)cs1` [Compound 183] yielded an IC50 of 4300 nM.

The compound `CCN(CC)CCNc1nc2ccc(-c3csc(C(=O)NCc4cccc(OC)c4)c3)cn2n1` [Compound 266] gave an IC50 in experiment [2] greater than 30000 nM.

For `CC1CCCN(C(=O)c2cc(-c3ccc4nc(N)nn4c3)cs2)C1` (centres unmarked) [Compound 167], the IC50 in experiment [2] was found to be 10000 nM.

As for `Cn1cc(CNC(=O)c2cc(-c3ccc4nc(N)nn4c3)cs2)cn1` [Compound 244], the IC50 in experiment [2] is 4100 nM.

Regarding `Nc1nc2c(C(=O)N[C@H]3CCOC3)cc(-c3csc(C(=O)NCc4ccc(F)cc4)c3)cn2n1` [Compound 101], half-maximal inhibition in experiment [2] (IC50) required 18 nM.

For `Nc1nc2ccc(-c3csc(C(=O)N4CC5(COC5)C4)c3)cn2n1` [Compound 163], the IC50 in experiment [2] worked out at 12000 nM.

For `Cc1nc(CNC(=O)c2cc(-c3ccc4nc(N)nn4c3)cs2)cs1` [Compound 217], in experiment [2], the midpoint of inhibition, the IC50, lay at 8600 nM.
